# Values joined by “and” are separate entries in the source; they are usually repeats but may differ in a detail not shown here. Identical values can stand only once. In the oligonucleotide strings, read from the 5' end, every base follows the letter of its sugar. An asterisk marks phosphorothioate; unmarked linkages are phosphodiester. Other units and linkages are bracketed, terminal groups are in braces. A string of capitals states the bases alone. e = 2'-O-(2-methoxyethyl) (MOE); [5mC] = 5-methylcytosine
# Experiments:
# PEPCK-c = PEPCK-c mRNA expression in HepG2 cells; type: cell-based, human; conditions: for PEPCK-c (% UTC): HepG2, 100 nM oligomeric compound; for PEPCKc mRNA expression: Experiment 2, insulin treated: HepG2 cells transfected with oligomeric compound, 1 nM insulin for four hours, UTC + 1 nM insulin = 100; for PEPCKc mRNA: HepG2 cells, four hours, UTC = 100
# HeLa cells = assay: Cell cycle assay in HeLa cells; type: cell-based, human; conditions: HeLa cells
# [1] = Experiment 1, basal (no insulin)
# [2] = Experiment 2, 1 nM insulin treated
# [3] = 25 nM, 48 hours, percentage of cells in phase, average of replicates
# [4] = 50 nM, 48 hours, percentage of cells in phase, average of replicates
# [5] = 100 nM, 48 hours, percentage of cells in phase, average of replicates
# [6] = 150 nM oligomeric compound, 24 hours, relative to untreated control (UTC = 100)
# [7] = 150 nM oligomeric compound, 48 hours after treatment, relative to untreated control (UTC=100)
# [8] = 150 nM, 48 hours, relative to untreated control
# [9] = 150 nM, 48 hours, percentage of cells in phase, average of replicates
substance,measurement,setting,value
327905 (antisense e[5mC]*eA*eG*eA*e[5mC]*eT*e[5mC]*e[5mC]*eG*eG*eT*eG*eG*eA*eA*eT*eG*eA*eA*eG*eG*eA) [compound 327905],PEPCK-c (% UTC),PEPCK-c; [1],129 % UTC
same,PEPCK-c (% UTC),PEPCK-c; [2],147 % UTC
same,% cells in cell cycle phase: G2/M,"HeLa cells; 25 nM, 48 hours",18%
same,% cells in cell cycle phase: G1,HeLa cells; [3],57%
same,% cells in cell cycle phase: S,HeLa cells; [3],24%
same,% cells in cell cycle phase: aneuploid,HeLa cells; [3],12%
same,% cells in cell cycle phase: subG1,HeLa cells; [3],1.7%
same,% cells in cell cycle phase: G2/M,"HeLa cells; 50 nM, 48 hours",20%
same,% cells in cell cycle phase: G1,HeLa cells; [4],50%
same,% cells in cell cycle phase: S,HeLa cells; [4],30%
same,% cells in cell cycle phase: aneuploid,HeLa cells; [4],12%
same,% cells in cell cycle phase: subG1,HeLa cells; [4],2.1%
same,% cells in cell cycle phase: G2/M,"HeLa cells; 100 nM, 48 hours",24%
same,% cells in cell cycle phase: G1,HeLa cells; [5],46%
same,% cells in cell cycle phase: S,HeLa cells; [5],30%
same,% cells in cell cycle phase: aneuploid,HeLa cells; [5],14%
same,% cells in cell cycle phase: subG1,HeLa cells; [5],2.5%
same,% cells aneuploid,HeLa cells; [6],50% and 98%
same,% cells in cell cycle phase G1,HeLa cells; [6],99% and 94%
same,% cells in cell cycle phase G2/M,HeLa cells; [6],129% and 121%
same,% cells in cell cycle phase S,HeLa cells; [6],88% and 95%
same,% cells in cell cycle phase subG1,HeLa cells; [6],144% and 149%
same,% cells in cell cycle phase: G1,HeLa cells; [7],48% and 78%
same,% cells in cell cycle phase: G2/M,HeLa cells; [7],150% and 122%
same,% cells in cell cycle phase: S,HeLa cells; [7],194% and 143%
same,% cells in cell cycle phase: aneuploid,HeLa cells; [7],67% and 99%
same,% cells in cell cycle phase: G2/M,"HeLa cells; 150 nM, 48 hours",24%
same,% cells in cell cycle phase G1,HeLa cells; [8],108%
same,% cells in cell cycle phase G2/M,HeLa cells; [8],90%
same,% cells in cell cycle phase S,HeLa cells; [8],99%
same,% cells in cell cycle phase aneuploid,HeLa cells; [8],164%
same,% cells in cell cycle phase subG1,HeLa cells; [8],55%
same,% cells in cell cycle phase: G1,HeLa cells; [9],38%
same,% cells in cell cycle phase: S,HeLa cells; [9],38%
same,% cells in cell cycle phase: aneuploid,HeLa cells; [9],12%
same,% cells in cell cycle phase: subG1,HeLa cells; [9],4.5%
327919 (antisense eG*eA*eA*eA*e[5mC]*e[5mC]*e[5mC]*eA*eG*e[5mC]*eA*eG*eA*e[5mC]*eA*eA*eT*eG*eT*eA*eG*e[5mC]*eT) [compound 327919],PEPCK-c (% UTC),PEPCK-c; [1],71 % UTC
same,PEPCK-c (% UTC),PEPCK-c; [2],105 % UTC
same,% cells aneuploid,HeLa cells; [6],96%
same,% cells in cell cycle phase G1,HeLa cells; [6],92%
same,% cells in cell cycle phase G2/M,HeLa cells; [6],109%
same,% cells in cell cycle phase S,HeLa cells; [6],103%
same,% cells in cell cycle phase subG1,HeLa cells; [6],85%
same,% cells in cell cycle phase: G1,HeLa cells; [7],80%
same,% cells in cell cycle phase: G2/M,HeLa cells; [7],139%
same,% cells in cell cycle phase: S,HeLa cells; [7],122%
same,% cells in cell cycle phase: aneuploid,HeLa cells; [7],104%
same,% cells in cell cycle phase: subG1,HeLa cells; [7],104%
328115 (antisense eA*eG*eA*eA*eG*eG*eT*eG*eG*eG*eG*eA*eG*e[5mC]*eA*eG*e[5mC]*eG*eT*e[5mC]*eA) [compound 328115],PEPCKc mRNA expression,PEPCK-c,59
same,% cells aneuploid,HeLa cells; [6],59%
same,% cells in cell cycle phase G1,HeLa cells; [6],90%
same,% cells in cell cycle phase G2/M,HeLa cells; [6],147%
same,% cells in cell cycle phase S,HeLa cells; [6],87%
same,% cells in cell cycle phase subG1,HeLa cells; [6],177%
same,% cells in cell cycle phase: G1,HeLa cells; [7],92%
same,% cells in cell cycle phase: G2/M,HeLa cells; [7],107%
same,% cells in cell cycle phase: S,HeLa cells; [7],114%
same,% cells in cell cycle phase: aneuploid,HeLa cells; [7],86%
same,% cells in cell cycle phase: subG1,HeLa cells; [7],195%
327897 (antisense eA*e[5mC]*eA*eG*eG*e[5mC]*e[5mC]*eG*eG*eG*eA*e[5mC]*eA*eA*eG*eT*eG*e[5mC]*eA*eA*eT*eA) [compound 327897],PEPCKc mRNA expression,PEPCK-c,78
same,PEPCKc mRNA,PEPCK-c; [1],72
same,% cells aneuploid,HeLa cells; [6],69% and 54%
same,% cells in cell cycle phase G1,HeLa cells; [6],114% and 128%
same,% cells in cell cycle phase G2/M,HeLa cells; [6],115% and 100%
same,% cells in cell cycle phase S,HeLa cells; [6],80% and 74%
same,% cells in cell cycle phase subG1,HeLa cells; [6],143% and 180%
same,% cells in cell cycle phase: G1,HeLa cells; [7],100% and 94%
same,% cells in cell cycle phase: G2/M,HeLa cells; [7],95% and 105%
same,% cells in cell cycle phase: S,HeLa cells; [7],103% and 114%
same,% cells in cell cycle phase: aneuploid,HeLa cells; [7],84% and 63%
same,% cells in cell cycle phase: subG1,HeLa cells; [7],134% and 125%
327903 (antisense eA*eA*e[5mC]*eT*eA*eT*eA*e[5mC]*eA*eA*e[5mC]*e[5mC]*eT*eA*e[5mC]*eT*eA*e[5mC]*e[5mC]*eT*e[5mC]*eA) [compound 327903],PEPCK-c (% UTC),PEPCK-c; [1],71 % UTC
same,PEPCK-c (% UTC),PEPCK-c; [2],87 % UTC
same,% cells aneuploid,HeLa cells; [6],98%
same,% cells in cell cycle phase G1,HeLa cells; [6],92%
same,% cells in cell cycle phase G2/M,HeLa cells; [6],106%
same,% cells in cell cycle phase S,HeLa cells; [6],104%
same,% cells in cell cycle phase subG1,HeLa cells; [6],118%
same,% cells in cell cycle phase: G1,HeLa cells; [7],102%
same,% cells in cell cycle phase: G2/M,HeLa cells; [7],98%
same,% cells in cell cycle phase: S,HeLa cells; [7],95%
same,% cells in cell cycle phase: aneuploid,HeLa cells; [7],94%
same,% cells in cell cycle phase: subG1,HeLa cells; [7],74%
327934 (antisense eG*eG*eT*eA*e[5mC]*eA*eA*eT*e[5mC]*eA*eA*e[5mC]*eG*eG*eT*e[5mC]*eG*eA*eT*eG*eG*eT) [compound 327934],PEPCK-c (% UTC),PEPCK-c; [1],99 % UTC
same,PEPCK-c (% UTC),PEPCK-c; [2],105 % UTC
same,% cells aneuploid,HeLa cells; [6],55% and 77%
same,% cells in cell cycle phase G1,HeLa cells; [6],87% and 118%
same,% cells in cell cycle phase G2/M,HeLa cells; [6],160% and 137%
same,% cells in cell cycle phase S,HeLa cells; [6],85% and 66%
same,% cells in cell cycle phase subG1,HeLa cells; [6],278% and 204%
same,% cells in cell cycle phase: G1,HeLa cells; [7],62% and 66%
same,% cells in cell cycle phase: G2/M,HeLa cells; [7],152% and 155%
same,% cells in cell cycle phase: S,HeLa cells; [7],156% and 148%
same,% cells in cell cycle phase: aneuploid,HeLa cells; [7],92% and 117%
327885 (antisense eA*e[5mC]*eT*eA*e[5mC]*e[5mC]*eT*eG*e[5mC]*eA*e[5mC]*eT*eG*eT*eA*eA*eG*e[5mC]*eA*e[5mC]*eT*eT*eT*eG) [compound 327885],PEPCKc mRNA,PEPCK-c; [1],73
same,% cells aneuploid,HeLa cells; [6],55%
same,% cells in cell cycle phase G1,HeLa cells; [6],129%
same,% cells in cell cycle phase G2/M,HeLa cells; [6],121%
same,% cells in cell cycle phase S,HeLa cells; [6],63%
same,% cells in cell cycle phase subG1,HeLa cells; [6],151%
same,% cells in cell cycle phase: G1,HeLa cells; [7],78%
same,% cells in cell cycle phase: G2/M,HeLa cells; [7],133%
same,% cells in cell cycle phase: S,HeLa cells; [7],129%
same,% cells in cell cycle phase: aneuploid,HeLa cells; [7],76%
same,% cells in cell cycle phase: subG1,HeLa cells; [7],456%

# From US8178506B2, “Oligomeric compounds and compositions for use in modulation of small non-coding RNAs” (Regulus Therapeutics Inc., priority 2003, dated 2012)
